In publication PMC9239059, “Structure-Guided Synthesis of FK506 and FK520 Analogs with Increased Selectivity Exhibit In Vivo Therapeutic Efficacy against Cryptococcus” (mBio, 2022):
Values after ≈ are worked out from the molar mass of the structure shown.

Legend:
FKBP12 [1] = biological target: T1, FKBP12 (Candida albicans, UniProt C4YFI3+C4YS24+P28870); experiment: BLI, compound-mediated ternary complex formation, […] compound; type: binding
T1 construct: gene RBP1; biotinylated (Avi-tagged) FKBP12; with CnA-CnB-calmodulin

FKBP12 [2] = biological target: T2, FKBP12 (Aspergillus fumigatus, UniProt Q4WLV6); experiment: as above; type: binding
T2 construct: gene fpr1A; biotinylated (Avi-tagged) FKBP12; with CnA-CnB-calmodulin

[3] = tested on: T3, Cryptococcus neoformans (H99); experiment: microbe, parasite or virus in culture; set-up: CLSI M27-A3 broth microdilution in RPMI 1640 at 37 C, growth inhibition of C. neoformans (MIC); settings: Cryptococcus neoformans, read-out: MIC (μg/mL) against: / Cryptococcus neoformans (H99)^a
T3 construct: H99
Description: In vitro antifungal activities of FK506, FK520, and analogs were assessed in RPMI 1640 (Sigma-Aldrich) for all strains tested. MICs/minimum effective concentrations (MECs) for each drug were measured using modified Clinical and Laboratory Standards Institute (CLSI) M38-A2 and M27-A3 standard in vitro antifungal susceptibility protocols. Broth microdilution assays for MIC/MEC assessment were performed as described previously ([33]). All antifungal assays with C. neoformans were performed at 37°C. Antifungal susceptibility testing for C. albicans was performed in the presence of a uniform 1 μg/mL concentration of fluconazole to sensitize the organism to calcineurin inhibition. MICs/minimum effective concentrations (MECs) were determined for each of the novel analogs against the three major human fungal pathogens, A. fumigatus, C. neoformans, and C. albicans. […] Thus, analogs of FK506 and FK520 can tolerate up to 100-fold reduction in antifungal activity and still be considered for in vivo testing. For C. neoformans, MICs were the most uniform and ranged from 0.2 to 2 μg/mL, which is between 4- and 40-fold reduced for antifungal activity. C. albicans MICs ranged from 0.2 to 6.25 μg/mL, which is between 10- and 312.5-fold reduced for activity. Despite being one of the most difficult to treat fungal infections, all six analogs were active against A. fumigatus with MECs ranging from 1 to 2 μg/mL or a 62.5- to 125-fold reduction in activity.

T1 sequence (P28870 whole entry): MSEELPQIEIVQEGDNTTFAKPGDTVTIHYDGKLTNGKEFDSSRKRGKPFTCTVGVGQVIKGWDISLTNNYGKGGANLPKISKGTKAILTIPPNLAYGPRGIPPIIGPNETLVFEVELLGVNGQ
T1 sequence (C4YFI3 54-445): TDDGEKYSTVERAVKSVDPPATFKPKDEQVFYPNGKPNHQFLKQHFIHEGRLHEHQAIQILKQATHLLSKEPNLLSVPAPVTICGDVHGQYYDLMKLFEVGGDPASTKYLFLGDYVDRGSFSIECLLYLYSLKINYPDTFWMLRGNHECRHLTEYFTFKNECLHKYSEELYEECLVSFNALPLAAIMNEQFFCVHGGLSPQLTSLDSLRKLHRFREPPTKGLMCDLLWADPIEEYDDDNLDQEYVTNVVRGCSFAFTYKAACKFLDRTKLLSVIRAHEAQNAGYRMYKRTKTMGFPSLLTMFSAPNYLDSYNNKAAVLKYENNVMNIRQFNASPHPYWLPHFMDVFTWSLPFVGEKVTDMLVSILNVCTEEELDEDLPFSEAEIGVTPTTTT
T1 sequence (C4YS24 1-173): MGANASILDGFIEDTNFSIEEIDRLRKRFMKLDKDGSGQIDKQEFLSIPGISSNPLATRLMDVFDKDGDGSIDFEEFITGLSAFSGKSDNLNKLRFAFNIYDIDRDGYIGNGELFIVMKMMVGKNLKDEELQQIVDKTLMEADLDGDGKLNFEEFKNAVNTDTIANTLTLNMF
T1 sequence (P23286 whole entry partner): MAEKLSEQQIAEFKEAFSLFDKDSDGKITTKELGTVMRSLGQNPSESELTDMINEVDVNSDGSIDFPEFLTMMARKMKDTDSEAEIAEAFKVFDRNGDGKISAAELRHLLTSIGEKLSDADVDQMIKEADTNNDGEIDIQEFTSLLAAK
T2 sequence (Q4WLV6 whole entry): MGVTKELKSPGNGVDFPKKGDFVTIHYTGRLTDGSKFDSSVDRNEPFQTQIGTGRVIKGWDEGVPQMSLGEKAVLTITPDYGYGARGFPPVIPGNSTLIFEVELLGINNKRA
T2 sequence (Q4WUR1 whole entry partner): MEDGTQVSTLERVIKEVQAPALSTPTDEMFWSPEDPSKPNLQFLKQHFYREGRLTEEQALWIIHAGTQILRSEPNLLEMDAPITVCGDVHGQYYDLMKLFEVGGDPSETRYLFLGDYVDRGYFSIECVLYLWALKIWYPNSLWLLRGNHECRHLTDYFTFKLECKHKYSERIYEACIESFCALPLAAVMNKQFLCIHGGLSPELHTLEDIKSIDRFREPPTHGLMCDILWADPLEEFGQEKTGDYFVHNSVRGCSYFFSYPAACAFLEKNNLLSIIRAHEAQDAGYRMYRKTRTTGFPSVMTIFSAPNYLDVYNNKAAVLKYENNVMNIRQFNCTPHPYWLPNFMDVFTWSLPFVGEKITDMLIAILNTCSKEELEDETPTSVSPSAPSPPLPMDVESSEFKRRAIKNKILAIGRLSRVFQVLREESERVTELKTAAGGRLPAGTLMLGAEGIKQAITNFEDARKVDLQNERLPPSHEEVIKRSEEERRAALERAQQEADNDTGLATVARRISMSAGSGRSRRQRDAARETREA

C=CC[C@@H]1/C=C(\C)C[C@H](C)C[C@H](OC)[C@H]2O[C@@](O)(C(=O)C(=O)N3CCCC[C@H]3C(=O)O[C@H](/C(C)=C/[C@@H]3CC[C@@H](O)[C@H](OC)C3)[C@H](C)[C@@H](O)C/C1=N/NC(=O)CC)[C@H](C)C[C@@H]2OC [JH-FK-02]
BLI, compound-mediated ternary complex formation, 10 μM compound (FKBP12 [1]): target complexes form in the presence of the analogs with affinities similar to those of the parent compounds
BLI, compound-mediated ternary complex formation, 10 μM compound (FKBP12 [2]): target complexes form in the presence of the analogs with affinities similar to those of the parent compounds
MIC [3]: 2 µg/mL (≈ 2.29 µM)
